{
  "source": "paper PMC9851200",
  "about": "“Multiparameter phenotypic screening for endogenous TFEB and TFE3 translocation identifies novel chemical series modulating lysosome function” (Autophagy, 2022)",
  "origin": "cited, not measured here",
  "parameters_in_all_cases": "method as in original PKIS2 published data",
  "key": {"[1]": {"molecular_target": "T1, kinases (KINOMEscan panel) (Homo sapiens, UniProt P54762)", "T1 sequence (P54762 18-984)": "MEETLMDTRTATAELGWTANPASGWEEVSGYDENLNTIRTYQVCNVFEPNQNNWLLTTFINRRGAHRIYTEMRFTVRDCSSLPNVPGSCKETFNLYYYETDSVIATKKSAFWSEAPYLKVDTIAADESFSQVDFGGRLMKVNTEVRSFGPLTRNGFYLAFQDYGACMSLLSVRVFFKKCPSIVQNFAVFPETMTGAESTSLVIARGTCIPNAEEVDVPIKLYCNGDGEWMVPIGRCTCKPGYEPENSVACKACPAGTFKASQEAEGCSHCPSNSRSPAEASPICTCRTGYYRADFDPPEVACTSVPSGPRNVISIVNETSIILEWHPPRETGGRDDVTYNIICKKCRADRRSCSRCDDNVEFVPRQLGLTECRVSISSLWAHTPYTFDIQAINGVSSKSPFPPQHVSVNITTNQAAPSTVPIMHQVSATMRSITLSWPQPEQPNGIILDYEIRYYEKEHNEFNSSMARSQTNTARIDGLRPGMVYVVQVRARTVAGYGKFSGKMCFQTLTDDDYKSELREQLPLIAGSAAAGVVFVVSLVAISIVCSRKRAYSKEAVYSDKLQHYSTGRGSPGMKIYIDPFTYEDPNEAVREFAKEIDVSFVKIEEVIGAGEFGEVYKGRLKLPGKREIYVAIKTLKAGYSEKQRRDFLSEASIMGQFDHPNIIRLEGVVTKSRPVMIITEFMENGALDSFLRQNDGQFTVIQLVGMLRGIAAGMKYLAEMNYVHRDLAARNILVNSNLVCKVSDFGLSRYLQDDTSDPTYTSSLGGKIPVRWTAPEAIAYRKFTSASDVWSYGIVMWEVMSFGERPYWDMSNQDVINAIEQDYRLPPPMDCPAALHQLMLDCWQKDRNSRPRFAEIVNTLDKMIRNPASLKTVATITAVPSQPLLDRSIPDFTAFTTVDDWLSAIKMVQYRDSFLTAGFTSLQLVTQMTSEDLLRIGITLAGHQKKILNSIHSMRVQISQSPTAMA", "settings": "kinase EPHB1; Published KINOMEscan; ref original PKIS2 published data; cited from earlier work"}, "[2]": {"molecular_target": "kinases (KINOMEscan panel) (Homo sapiens, UniProt P11362)", "settings": "kinase FGFR1; Published KINOMEscan; ref original PKIS2 published data; cited from earlier work"}, "[3]": {"molecular_target": "kinases (KINOMEscan panel) (Homo sapiens, UniProt Q13464)", "sequence (Q13464 whole entry)": "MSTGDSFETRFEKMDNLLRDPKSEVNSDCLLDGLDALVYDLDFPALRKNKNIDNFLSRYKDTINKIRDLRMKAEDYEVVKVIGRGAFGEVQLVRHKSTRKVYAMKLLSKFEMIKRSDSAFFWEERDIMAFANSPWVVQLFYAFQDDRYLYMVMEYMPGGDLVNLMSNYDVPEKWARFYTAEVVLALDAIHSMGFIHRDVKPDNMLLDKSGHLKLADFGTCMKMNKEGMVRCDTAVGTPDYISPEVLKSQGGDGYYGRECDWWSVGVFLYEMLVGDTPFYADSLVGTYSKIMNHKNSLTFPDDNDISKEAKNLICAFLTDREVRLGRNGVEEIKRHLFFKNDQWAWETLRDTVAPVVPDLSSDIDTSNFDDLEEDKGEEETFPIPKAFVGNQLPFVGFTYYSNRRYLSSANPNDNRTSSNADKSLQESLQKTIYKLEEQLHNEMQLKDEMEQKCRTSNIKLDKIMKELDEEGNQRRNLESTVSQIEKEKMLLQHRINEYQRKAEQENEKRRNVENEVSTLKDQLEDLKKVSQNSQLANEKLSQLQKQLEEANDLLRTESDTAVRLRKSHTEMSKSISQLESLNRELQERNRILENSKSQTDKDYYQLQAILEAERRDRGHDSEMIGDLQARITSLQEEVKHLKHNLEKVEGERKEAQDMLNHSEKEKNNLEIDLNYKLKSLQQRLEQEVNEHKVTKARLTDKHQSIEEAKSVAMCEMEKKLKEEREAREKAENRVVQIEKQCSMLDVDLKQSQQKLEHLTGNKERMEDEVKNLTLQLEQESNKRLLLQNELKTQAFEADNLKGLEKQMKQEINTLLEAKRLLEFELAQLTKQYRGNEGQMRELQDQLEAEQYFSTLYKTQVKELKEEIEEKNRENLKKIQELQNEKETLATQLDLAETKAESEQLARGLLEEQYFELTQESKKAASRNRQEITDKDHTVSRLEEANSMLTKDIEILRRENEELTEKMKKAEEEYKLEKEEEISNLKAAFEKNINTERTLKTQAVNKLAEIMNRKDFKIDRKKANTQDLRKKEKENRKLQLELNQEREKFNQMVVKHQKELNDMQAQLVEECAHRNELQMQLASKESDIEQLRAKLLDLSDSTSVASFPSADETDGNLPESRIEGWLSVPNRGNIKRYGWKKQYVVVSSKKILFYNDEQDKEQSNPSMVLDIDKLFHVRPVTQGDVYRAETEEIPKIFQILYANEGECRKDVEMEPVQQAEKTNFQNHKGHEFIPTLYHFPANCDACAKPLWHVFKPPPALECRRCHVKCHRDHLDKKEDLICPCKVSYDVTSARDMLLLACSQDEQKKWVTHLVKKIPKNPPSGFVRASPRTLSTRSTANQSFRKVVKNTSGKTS", "settings": "ROCK1; Published KINOMEscan; ref original PKIS2 published data; cited from earlier work"}, "[4]": {"molecular_target": "kinases (KINOMEscan panel) (Homo sapiens, UniProt O43683)", "sequence (O43683 whole entry)": "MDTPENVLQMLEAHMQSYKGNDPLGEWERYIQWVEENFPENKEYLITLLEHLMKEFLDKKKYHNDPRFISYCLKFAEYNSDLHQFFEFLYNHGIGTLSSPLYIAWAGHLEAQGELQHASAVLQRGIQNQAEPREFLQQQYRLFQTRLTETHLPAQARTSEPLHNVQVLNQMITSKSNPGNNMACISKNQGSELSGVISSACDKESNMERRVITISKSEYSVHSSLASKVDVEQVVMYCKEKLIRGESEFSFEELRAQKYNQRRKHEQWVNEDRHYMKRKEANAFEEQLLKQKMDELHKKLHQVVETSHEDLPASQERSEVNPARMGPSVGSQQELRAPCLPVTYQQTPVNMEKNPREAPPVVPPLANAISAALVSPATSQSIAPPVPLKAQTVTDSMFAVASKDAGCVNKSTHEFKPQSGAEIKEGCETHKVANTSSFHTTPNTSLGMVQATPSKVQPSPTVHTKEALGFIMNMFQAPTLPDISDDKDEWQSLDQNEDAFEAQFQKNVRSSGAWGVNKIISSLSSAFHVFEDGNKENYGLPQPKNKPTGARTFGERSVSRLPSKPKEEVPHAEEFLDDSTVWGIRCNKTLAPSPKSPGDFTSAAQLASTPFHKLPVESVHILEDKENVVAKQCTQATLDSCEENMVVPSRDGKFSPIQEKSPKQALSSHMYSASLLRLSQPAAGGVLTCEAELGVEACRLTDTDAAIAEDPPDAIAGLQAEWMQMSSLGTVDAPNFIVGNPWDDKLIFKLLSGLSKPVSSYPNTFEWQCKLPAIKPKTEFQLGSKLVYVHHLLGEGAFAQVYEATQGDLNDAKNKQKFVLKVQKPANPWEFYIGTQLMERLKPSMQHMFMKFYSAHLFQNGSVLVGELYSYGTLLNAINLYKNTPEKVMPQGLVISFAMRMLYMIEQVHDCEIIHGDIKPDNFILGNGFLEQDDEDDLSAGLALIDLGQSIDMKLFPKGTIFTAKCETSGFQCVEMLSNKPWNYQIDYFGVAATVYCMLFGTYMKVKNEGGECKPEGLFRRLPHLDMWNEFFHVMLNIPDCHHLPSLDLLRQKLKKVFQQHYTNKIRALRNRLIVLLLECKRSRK", "settings": "kinase BUB1; Published KINOMEscan; ref original PKIS2 published data; cited from earlier work"}, "[5]": {"molecular_target": "kinases (KINOMEscan panel) (Homo sapiens, UniProt Q08345)", "sequence (Q08345 19-913)": "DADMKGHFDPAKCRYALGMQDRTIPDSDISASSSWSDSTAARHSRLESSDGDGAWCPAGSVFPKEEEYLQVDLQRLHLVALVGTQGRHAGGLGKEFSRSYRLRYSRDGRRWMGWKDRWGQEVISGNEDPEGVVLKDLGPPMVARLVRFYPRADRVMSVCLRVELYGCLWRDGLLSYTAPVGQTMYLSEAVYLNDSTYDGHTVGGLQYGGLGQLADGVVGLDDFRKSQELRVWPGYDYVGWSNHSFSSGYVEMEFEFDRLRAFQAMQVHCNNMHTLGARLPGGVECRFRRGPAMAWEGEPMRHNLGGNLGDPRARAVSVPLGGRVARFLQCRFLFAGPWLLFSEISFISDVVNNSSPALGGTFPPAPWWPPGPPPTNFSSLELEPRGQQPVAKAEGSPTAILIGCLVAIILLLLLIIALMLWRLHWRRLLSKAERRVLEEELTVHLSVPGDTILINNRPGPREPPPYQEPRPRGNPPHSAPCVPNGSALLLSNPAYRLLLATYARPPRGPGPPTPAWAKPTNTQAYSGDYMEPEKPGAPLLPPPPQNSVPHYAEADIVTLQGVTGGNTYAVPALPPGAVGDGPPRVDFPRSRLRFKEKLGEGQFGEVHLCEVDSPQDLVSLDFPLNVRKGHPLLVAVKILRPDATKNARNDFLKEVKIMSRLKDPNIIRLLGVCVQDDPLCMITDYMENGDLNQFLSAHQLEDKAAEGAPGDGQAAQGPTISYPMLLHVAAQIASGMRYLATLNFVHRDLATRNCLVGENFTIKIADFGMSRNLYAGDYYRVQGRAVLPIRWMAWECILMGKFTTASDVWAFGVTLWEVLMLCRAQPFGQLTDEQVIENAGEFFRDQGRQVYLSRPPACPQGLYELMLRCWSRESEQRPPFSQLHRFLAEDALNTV", "settings": "DDR1; Published KINOMEscan; ref original PKIS2 published data; cited from earlier work"}, "[6]": {"molecular_target": "T2, kinases (KINOMEscan panel) (Homo sapiens, UniProt Q9UBE8)", "T2 sequence (Q9UBE8 1-527)": "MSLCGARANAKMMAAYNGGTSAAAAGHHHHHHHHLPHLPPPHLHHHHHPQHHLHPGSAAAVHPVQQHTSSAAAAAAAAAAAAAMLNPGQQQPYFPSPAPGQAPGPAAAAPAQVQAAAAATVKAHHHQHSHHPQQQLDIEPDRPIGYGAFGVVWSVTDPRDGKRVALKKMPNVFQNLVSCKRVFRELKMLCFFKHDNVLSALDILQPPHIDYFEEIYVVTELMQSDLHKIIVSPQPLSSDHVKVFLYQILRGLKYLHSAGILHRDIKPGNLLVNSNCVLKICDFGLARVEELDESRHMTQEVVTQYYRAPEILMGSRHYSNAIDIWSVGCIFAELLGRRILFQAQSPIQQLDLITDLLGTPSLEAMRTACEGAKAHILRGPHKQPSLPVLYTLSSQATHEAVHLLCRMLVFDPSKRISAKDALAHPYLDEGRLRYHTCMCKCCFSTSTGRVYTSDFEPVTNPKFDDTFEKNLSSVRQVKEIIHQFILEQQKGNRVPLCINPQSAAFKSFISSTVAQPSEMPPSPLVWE", "settings": "NLK; Published KINOMEscan; ref original PKIS2 published data; cited from earlier work"}, "[7]": {"molecular_target": "kinases (KINOMEscan panel) (Homo sapiens, UniProt Q07912)", "sequence (Q07912 whole entry)": "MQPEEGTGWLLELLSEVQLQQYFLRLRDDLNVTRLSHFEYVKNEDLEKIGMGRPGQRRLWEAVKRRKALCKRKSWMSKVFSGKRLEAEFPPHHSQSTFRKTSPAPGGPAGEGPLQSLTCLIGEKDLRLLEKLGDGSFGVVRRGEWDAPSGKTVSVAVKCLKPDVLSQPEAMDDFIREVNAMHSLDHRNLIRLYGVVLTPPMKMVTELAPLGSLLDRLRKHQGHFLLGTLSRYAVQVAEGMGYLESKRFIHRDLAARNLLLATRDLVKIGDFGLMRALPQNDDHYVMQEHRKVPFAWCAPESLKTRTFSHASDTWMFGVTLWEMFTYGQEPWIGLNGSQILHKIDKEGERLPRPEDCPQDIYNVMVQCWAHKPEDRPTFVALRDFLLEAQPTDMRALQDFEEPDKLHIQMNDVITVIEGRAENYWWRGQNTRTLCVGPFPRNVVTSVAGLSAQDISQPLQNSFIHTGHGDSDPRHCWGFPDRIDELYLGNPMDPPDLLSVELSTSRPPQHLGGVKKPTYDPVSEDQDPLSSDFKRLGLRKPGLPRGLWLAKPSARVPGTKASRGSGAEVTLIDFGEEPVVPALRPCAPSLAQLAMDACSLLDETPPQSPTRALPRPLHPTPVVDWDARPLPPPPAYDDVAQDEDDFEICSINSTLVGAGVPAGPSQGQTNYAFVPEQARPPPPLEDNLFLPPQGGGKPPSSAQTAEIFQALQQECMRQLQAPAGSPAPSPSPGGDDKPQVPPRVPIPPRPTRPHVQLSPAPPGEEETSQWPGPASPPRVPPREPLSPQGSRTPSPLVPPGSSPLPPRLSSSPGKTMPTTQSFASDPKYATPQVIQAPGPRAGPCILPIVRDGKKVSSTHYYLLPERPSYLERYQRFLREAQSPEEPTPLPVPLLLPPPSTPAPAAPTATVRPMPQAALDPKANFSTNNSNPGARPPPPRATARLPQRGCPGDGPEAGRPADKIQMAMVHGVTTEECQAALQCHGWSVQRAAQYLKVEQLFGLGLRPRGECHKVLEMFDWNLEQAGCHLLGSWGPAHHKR", "settings": "TNK2; Published KINOMEscan; ref original PKIS2 published data; cited from earlier work"}, "[8]": {"molecular_target": "T3, kinases (KINOMEscan panel) (Homo sapiens, UniProt Q8NG66)", "T3 sequence (Q8NG66 1-645)": "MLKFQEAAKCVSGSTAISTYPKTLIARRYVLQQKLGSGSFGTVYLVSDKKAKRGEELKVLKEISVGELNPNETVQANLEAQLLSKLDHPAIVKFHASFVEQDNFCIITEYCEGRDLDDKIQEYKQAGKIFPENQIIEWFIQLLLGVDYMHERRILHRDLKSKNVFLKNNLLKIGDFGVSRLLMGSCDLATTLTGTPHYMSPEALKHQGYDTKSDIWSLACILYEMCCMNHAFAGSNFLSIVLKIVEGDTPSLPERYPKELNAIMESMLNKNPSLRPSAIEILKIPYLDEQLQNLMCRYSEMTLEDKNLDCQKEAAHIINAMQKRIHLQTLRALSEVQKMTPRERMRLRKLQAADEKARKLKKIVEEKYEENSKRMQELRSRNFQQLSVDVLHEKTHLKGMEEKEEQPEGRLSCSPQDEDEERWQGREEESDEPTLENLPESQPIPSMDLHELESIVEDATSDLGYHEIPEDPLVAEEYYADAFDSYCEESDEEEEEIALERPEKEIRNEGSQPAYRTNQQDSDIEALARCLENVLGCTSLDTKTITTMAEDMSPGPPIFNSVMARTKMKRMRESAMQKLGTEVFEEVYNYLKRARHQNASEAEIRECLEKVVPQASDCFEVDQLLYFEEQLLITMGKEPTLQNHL", "settings": "Published KINOMEscan; ref original PKIS2 published data; cited from earlier work"}},
  "data": [
    {"smiles": "Cc1cccc(-c2nc(Nc3ccncc3)c3ccccc3n2)n1", "note": "[NK215]", "values": [
      {"measurement": "KINOMEscan EPHB1", "setting": "[1]", "value": 3},
      {"measurement": "KINOMEscan FGFR1", "setting": "[2]", "value": 5},
      {"measurement": "KINOMEscan ROCK1", "setting": "[3]", "value": 0},
      {"measurement": "KINOMEscan BUB1", "setting": "[4]", "value": 0},
      {"measurement": "KINOMEscan DDR1", "setting": "[5]", "value": 30},
      {"measurement": "KINOMEscan NLK", "setting": "[6]", "value": 47},
      {"measurement": "KINOMEscan TNK2", "setting": "[7]", "value": 0},
      {"measurement": "KINOMEscan NEK11", "setting": "[8]", "value": 0}
    ]}
  ]
}
